Data from patent US6369109B1, “Betulinic acid and derivatives thereof useful for the treatment of neuroectodermal tumor” (Deutsches Krebsforschungszentrum Stiftung des Offentlichen …, priority 1998, dated 2002).
Residues, ends and D or L forms follow the SMILES beside them. *: point of attachment. Cbz = O=C(OCc1ccccc1)*; CH2F = FC*

Test system: isolated nuclei with mitochondria from SHEP cells
Assay: Cell-free system of apoptosis: nuclear fragmentation of isolated nuclei
Assay type: biochemical, human
Details: for effect of inhibitor on betulinic acid-induced fragmentation of nuclei / effect of inhibitor on nuclear fragmentation by mitochondria from drug-pretreated cells / effect of inhibitor on DNA fragmentation by supernatants from betulinic acid-treated mitochondria: 50 μM bongkrekic acid or 60 μM zVAD-fmk; for effect of inhibitor on DNA fragmentation by supernatants from betulinic acid-treated mitochondria: FIG. 10B
Protocol: (§1) For determination of nuclear fragmentation, nuclei (10^3/μl) were incubated with mitochondria (1 μg/μl) in buffer D (10 mM HEPES, pH 7.4, 50 mM NaCl, 2 mM MgCl2, 5 mM EGTA, 1 mM DDT, 2 mM ATP, 10 mM phosphocreatine, 50 μg/ml creatine kinase, 10 μM cytochalasin B) for 2 h at 37° C. Nuclei were stained with propidium iodide ([…]) and analyzed by flow cytometry. For determination of caspase activation, cytosolic extracts (2 μg/μl) were incubated with mitochondria (1 μg/μl), cytochrome c (0.1-100 μM) or AIF-containing mitochondrial supernatant (0.5 μg/μl) in buffer D for 2 h at 37° C. Partially purified AIF (cytochrome c-free) was prepared as previously described (0.5 mg/ml, Susin et al., 1997, J. Exp. Med. 186, 5-37; Susin et al., 1996, J. Exp. Med. 184, 1331-41). Proteins were separated by 15% SDS-PAGE and Western blot analysis was performed as described above.
Mitochondria isolated from SHEP cells, transfected with bcl-2 or bcl-XL or a neomycin resistance vector only, were incubated for 6 h with nuclei and 0.1-10 μg/ml betulinic acid (FIG. 8A) or 5 mM atractyloside (FIG. 8B) in the presence or absence of 50 μM bongkrekic acid or 60 μMZ-VAD-fnk. Nuclei incubated with either mitochondria from vector only cells or with betulinic acid were used as control. Nuclear apoptosis was determined by FACS analysis of propidium iodide stained DNA content.
SHEP cells transfected with bcl-2 or bcl-XL or a neomycin resistance vector only were treated with 10 μg/ml betulinic acid or 5 mM atractyloside for 6-24 h (FIG. 8C). Mitochondria were isolated and incubated with nuclei in the presence or absence of 50 μM bongkrekic acid or 60 μMZ-VAD-fmk. Nuclei incubated with either mitochondria front vector only cells or with betulinic acid were used as control. Nuclear apoptosis was determined by FACS analysis of propidium iodide stained DNA content.
Mitochondria isolated from SHEP cells transfected with bcl-2, Bcl-XL or a neomycin resistance vector only were treated with 10 μg/ml betulinic acid or 5 mM atractyloside for 0.5 h in the presence or absence of 50 μM bongkrekic acid or 60 μM zVAD-fmk. Mitochondrial supernatants obtained by high speed centrifugation were incubated with nuclei for 2 h at 37° C. Nuclei incubated with supernatants of untreated mitochondria were used as control.. Nuclear apoptosis was determined by FACS analysis of propidium iodide stained DNA content.
as §1, with “cytometry (Susin et al., 1997 Exp. Cell Res. 236:397-403).” for “cytometry.”, “(10” for “(0.1-100”, “C.” for “C. Partially purified AIF (cytochrome c-free) was prepared as previously described (0.5 mg/ml, Susin et al., 1997, J. Exp. Med. 186, 5-37; Susin et al., 1996, J. Exp. Med. 184, 1331-41).”, “before.” for “above.”
SHEP cells transfected with Bcl-2 or BCl-XL or a neomycin resistance vector only (Neo) were treated with 0.5 μg/ml Doxorubicin or 10 μg/ml Betulinic acid for 48 h (A) or 24 h (B and C). Cells transfected with a neomycin resistance vector only (Neo) were treated in the presence or absence of 50 μm BA or 60 μm zVAD-fmk. Nuclear apoptosis was determined by FACS analysis or propidium iodide-stained DNA content in intact cells (A) or in a CFS incubating isolated nuclei with mitochondria from cells treated with Doxo or betulinic acid (C). ΔΨm was determined by staining cells with the potential-sensitive fluorochrome DiOC6(3) (B).

Row | SMILES | effect of inhibitor on betulinic acid-induced fragmentation of nuclei (FIG. 8A) | effect of inhibitor on nuclear fragmentation by mitochondria from drug-pretreated cells (FIG. 8C, 12C) | effect of inhibitor on DNA fragmentation by supernatants from betulinic acid-treated mitochondria | nuclear fragmentation by mitochondria isolated from drug-pretreated cells (10 μg/ml betulinic acid or 0.5 μg/ml doxorubicin, FIG. 8C, 12C) | nuclear DNA fragmentation, mitochondria plus nuclei plus drug (Neo control mitochondria, 0.1-10 μg/ml betulinic acid or 5 mM atractyloside, 6 h, FIG. 8A, 8B)
1 | CO[C@H](C/C=C\C=C\CC/C=C/C[C@H](C)/C=C/C(=C\C(=O)O)CC(=O)O)/C(C)=C\C=C(/C)C(=O)O [bongkrekic acid] | inhibited | again blocked | also blocked | – | –
2 | COc1cccc2c1C(=O)c1c(O)c3c(c(O)c1C2=O)C[C@@](O)(C(=O)CO)C[C@@H]3O[C@H]1C[C@H](N)[C@H](O)[C@H](C)O1 [doxorubicin] | – | – | – | induced nuclear DNA fragmentation | No DNA fragmentation was observed
3 | COC(=O)C[C@H](NC(=O)[C@H](C)NC(=O)[C@@H](NC(=O)OCc1ccccc1)C(C)C)C(=O)CF [zVAD-fmk, benzyloxycarbonyl-Val-Ala-Asp-Fluoromethylketone] (Cbz-Val-Ala-Asp(OMe)-CH2F) | inhibited | again blocked | also blocked | – | –
